According to US7300934B2, “Benzamide nitriles” (Roche Palo Alto LLC, priority 2003, dated 2007):

melting point: 156 to 158.9 °C
SMILES: CC(C)C[C@@H](C#N)NC(=O)[C@@H]1CCCC[C@@H]1NC(=O)c1ccc(-n2cncn2)cc1 [Compound 32, N-[(1S,2R)-2-({[(1S)-1-cyano-3-methylbutyl]amino}carbonyl)cyclohexyl]-4-(1H-1,2,4-triazol-1-yl)benzamide]
